Calls of active or inactive are those of the source. The rule behind the calls is not given here.

The target of one assay is Mitogen-activated protein kinase kinase kinase 2 (Homo sapiens) + Dual specificity mitogen-activated protein kinase kinase 5 (Homo sapiens) (UniProt Q9Y2U5+Q13163). Description: MEKK2 PB1-MEK5 interaction blockers – biochemical, bead multiplex flow cytometry, wildtype, dose response (AID 1897). To be noted: MEK5-MEKK2 PB1 binding. For orientation: In flow cytometry, cells or beads pass a laser one at a time.
Mitogen-activated protein kinase kinase kinase 2 (Homo sapiens) + Dual specificity mitogen-activated protein kinase kinase 5 (Homo sapiens), sequence (Q13163 whole entry, looked up): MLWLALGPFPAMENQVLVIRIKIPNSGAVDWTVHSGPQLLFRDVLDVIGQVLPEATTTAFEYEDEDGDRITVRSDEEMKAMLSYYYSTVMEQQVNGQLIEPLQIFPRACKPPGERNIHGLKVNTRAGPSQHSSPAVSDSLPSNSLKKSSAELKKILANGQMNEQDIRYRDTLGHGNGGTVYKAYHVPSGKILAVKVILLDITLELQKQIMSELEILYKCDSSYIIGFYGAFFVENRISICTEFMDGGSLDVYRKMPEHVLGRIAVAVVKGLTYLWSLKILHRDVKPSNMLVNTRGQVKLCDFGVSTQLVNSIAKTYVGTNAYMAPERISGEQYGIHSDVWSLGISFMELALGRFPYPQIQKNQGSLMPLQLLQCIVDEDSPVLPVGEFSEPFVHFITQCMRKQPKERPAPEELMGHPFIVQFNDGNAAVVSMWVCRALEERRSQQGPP
Mitogen-activated protein kinase kinase kinase 2 (Homo sapiens) + Dual specificity mitogen-activated protein kinase kinase 5 (Homo sapiens), sequence (Q9Y2U5 whole entry, looked up): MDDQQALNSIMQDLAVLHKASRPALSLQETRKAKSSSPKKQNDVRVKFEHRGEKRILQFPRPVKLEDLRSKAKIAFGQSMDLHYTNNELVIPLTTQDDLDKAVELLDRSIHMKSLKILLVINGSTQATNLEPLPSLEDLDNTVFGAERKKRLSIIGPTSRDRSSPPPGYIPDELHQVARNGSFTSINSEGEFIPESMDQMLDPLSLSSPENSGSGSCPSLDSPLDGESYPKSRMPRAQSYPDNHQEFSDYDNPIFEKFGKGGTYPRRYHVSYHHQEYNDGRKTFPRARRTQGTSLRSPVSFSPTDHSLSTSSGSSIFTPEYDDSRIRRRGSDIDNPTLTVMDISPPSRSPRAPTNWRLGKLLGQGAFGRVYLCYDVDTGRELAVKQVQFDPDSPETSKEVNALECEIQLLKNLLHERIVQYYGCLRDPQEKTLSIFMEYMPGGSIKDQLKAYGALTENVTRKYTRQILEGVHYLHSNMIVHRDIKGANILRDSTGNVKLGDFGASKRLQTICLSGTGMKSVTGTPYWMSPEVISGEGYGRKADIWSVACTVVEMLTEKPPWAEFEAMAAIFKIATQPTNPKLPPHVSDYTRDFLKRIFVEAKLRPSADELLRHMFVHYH
As for `CCOC(=O)c1c(CSC(=N)N)n(-c2ccc(C)cc2)c2cc(Br)c(OC(C)=O)cc12`, the 50% effective concentration (EC50) is 5.2 µM.
Take `CN1CCN(CC(=O)N2CCn3c4c(c5cc(C6CCCCC6)ccc53)CCCC42)CC1` (stereo unspecified): the EC50 is > 30 µM (inactive).
Turning to `CCCOc1ccc2c(c1)C(=NN=C(N)N)c1cc(OCCC)ccc1-2`, the EC50 was 4.59 µM.
In the case of `CCCCCCCCCCCCCCCC[n+]1ccc(/C=N/O)cc1`, the half-maximal effective concentration (EC50) is 2.94 µM.
On to `C#CCOCCOCCOCCNc1nc(N2CCN(C(=O)[C@H](Cc3cc4ccccc4[nH]3)n3cc([C@@H](N)C(C)CC)nn3)CC2)nc(N2CCN(C(=O)[C@H](CCCCN)n3cc([C@@H](N)CC(C)C)nn3)CC2)n1` (stereo partly specified), for which the EC50 is 6.9 µM.
For the compound `CCCCCCCCCCOC(=O)Cn1c(COc2ccccc2)[n+](C)c2ccccc21`, the concentration for a half-maximal effect (EC50) is 2.6 µM.
Same read-out and setting: the figure for `CC(=O)c1c(C)[nH]c(C(=O)NC2=NCCS2)c1C` is > 30 µM (inactive); for `OCCCCNCc1ccc(OCc2ccc(Cl)cc2Cl)cc1` it is > 30 µM (inactive).
On the same count and under the same terms, for `CCCCCc1cc(=O)oc2c(C(CCN3CCCC(C)C3)c3ccc4c(c3)OCO4)c(OC)cc(OC)c12` (stereo unspecified) the value was > 30 µM (inactive); for `C#CCOCCOCCOCCNc1nc(N2CCN(C(=O)[C@H](Cc3ccc(O)cc3)n3cc([C@@H](N)CC(C)C)nn3)CC2)nc(N2CCN(C(=O)[C@H](Cc3ccc(O)cc3)n3cc([C@@H](N)CC(C)C)nn3)CC2)n1`, 8.71 µM.
Take `CCN(CC)CCNC(=O)c1ccc(NC(=O)c2cn(-c3ccccc3)nc2-c2cccs2)cc1`: the EC50 was 5.94 µM.
Same read-out and setting: for `COc1ccc(Cn2c(SCc3ccccc3C)nc3cc(OC)c(OC)cc3c2=N)cc1` the value was > 30 µM (inactive); for `CN(C)c1ccc(NC(=O)CN2CCC(O)(c3ccccc3)CC2)cc1`, > 30 µM (inactive); for `Nc1cc2nc[nH]c2cc1N`, 10.7 µM.
Same read-out and setting: the figure for `CCc1ccc(Nc2n[n+](-c3ccccc3)c(-c3ccc(OCc4ccccc4)cc3)s2)cc1` is 5.48 µM.
On to `CN(C)CCNc1ncnc2c1sc1nc(-c3ccccc3)c3c(c12)CCCC3`, for which the half-maximal effective concentration (EC50) was 3.37 µM.
As for `CN(C)CCCNc1cc(C(C)(C)C)nc2c(-c3ccc(Cl)cc3)cnn12`, the concentration for a half-maximal effect (EC50) was 4.35 µM.
Turning to `CCCCCCCCCCOC(=O)Cn1c(COc2cccc(C)c2)[n+](C)c2ccccc21`, the EC50 was > 30 µM (inactive).
For `CS(=O)(=O)N1N=C(c2ccccc2)CC1c1ccc2c(c1)OCO2` (stereo unspecified), the EC50 is > 30 µM (inactive).
As for `CCc1ccc(-c2nn(-c3ccccc3)cc2CSC(=N)N)cc1`, the EC50 was 5.12 µM.
Turning to `COc1ccc(Cn2cc3c(-c4ccc(F)cc4)nnc-3c3cc(OC)c(OC)cc32)cc1`, the EC50 was 1.15 µM.
For the compound `CC[n+]1c(/C=C/C=C/N(C(C)=O)c2ccccc2)sc2ccccc21`, the EC50 was > 30 µM (inactive).
Take `C#CCOCCOCCOCCNc1nc(N2CCN(C(=O)[C@H](Cc3ccc(O)cc3)n3cc([C@@H](N)CC(C)C)nn3)CC2)nc(N2CCN(C(=O)[C@H](Cc3cc4ccccc4[nH]3)n3cc([C@@H](N)CC(C)C)nn3)CC2)n1`: the EC50 is 5.14 µM.
In the case of `COc1cc(/C=N/NC(=O)c2cc3ccccc3cc2O)ccc1OCCN1CCCCC1`, the EC50 was > 30 µM (inactive).
Regarding `COc1ccc(-n2nc3c(N)n[nH]c3cc2=O)cc1`, the half-maximal effective concentration (EC50) was 1.48 µM.
As to `COCCNC(=O)CN(c1cc(Cl)ccc1OC)S(=O)(=O)c1ccc(C)c([N+](=O)[O-])c1`, the EC50 was > 30 µM (inactive).
Turning to `COc1ccc(C(CCNCc2ccc(OC(C)C)cc2)c2ccccc2OC)cc1` (stereo unspecified), the EC50 is > 30 µM (inactive).
For `CCC(=C/c1sc2ccc3ccccc3c2[n+]1C)/C=C1\Sc2ccc3ccccc3c2N1C`, the EC50 was 0.14 µM.
Same read-out and setting: for `S=c1[nH]nc(-c2ccc(Cl)cc2)n1-c1ccc2c(c1)OCCO2` the value was > 30 µM (inactive); for `CCCCCCCCCCOC(=O)Cn1c(COc2ccc(OC)cc2)[n+](C)c2ccccc21`, > 30 µM (inactive).
`c1ccc(CNc2nc(NCc3ccccc3)c3ccccc3n2)cc1`: the EC50 is > 30 µM (inactive).
With `CCN1CCN(CCNC(=O)c2ccc(/C=C3/Sc4ccccc4N(Cc4cccc(Cl)c4)C3=O)cc2)CC1`, the EC50 was 3.78 µM.
For the compound `Cc1nc(Nc2cnc(/C=C/c3cc(C(=O)Nc4cccc(C(F)(F)F)c4)ccc3C)cn2)cc(N2CCNCC2)n1`, the EC50 was > 30 µM (inactive).
Still for that read-out and setting: for `COc1ccc(-c2[nH]ncc2CN2CCCCCCC2)c(OC)c1` the value was > 30 µM (inactive); for `O=C(c1cc(COc2c(F)cccc2F)on1)N1C[C@H]2CC[C@H]1C2`, > 30 µM (inactive).
In the case of `Cc1cc2cc(CNC(=O)NC3CCCCC3)ccc2[nH]1`, the EC50 was 4.13 µM.
For `NC(=O)CSc1nnc(Cc2ccc3c(c2)OCO3)o1`, the EC50 is > 30 µM (inactive).
For `Cc1nc(N)sc1-c1csc(Nc2ncccn2)n1`, the EC50 was > 30 µM (inactive).
Turning to `CCN1CCN(CCNC(=O)c2ccc(/C=C3/Sc4ccccc4N(Cc4cccc(C)c4)C3=O)cc2)CC1`, the EC50 was 6.61 µM.
On to `S=C(Nc1cccc(Cl)c1)N(CCCN1CCCC1)Cc1cccn1Cc1ccc(Cl)cc1`, for which the EC50 was 5.75 µM.
For `CCCCCCCCCCOC(=O)Cn1c(COc2ccccc2OC)[n+](C)c2ccccc21`, the EC50 was 3.05 µM.
On to `Cc1ccc(-c2csc(NC(=O)C[n+]3cc(-c4ccc(C)cc4)n4c3CCC4)n2)cc1`, for which the EC50 is > 30 µM (inactive).
With `CCCCCc1cc(=O)oc2c(C(CCN3CCCC(C)C3)c3ccc(OC)cc3)c(OC)cc(OC)c12` (stereo unspecified), the 50% effective concentration (EC50) was 9.57 µM.
Turning to `O=C1Nc2ccc(Br)cc2/C1=N/N=C/C1=C(N2CCOCC2)C(=C\c2ccccc2)/CC1`, the EC50 was 1.87 µM.
Turning to `CCCN(CCC)CCNC(=O)c1cc2c(-c3ccc(Cl)cc3)nn(C)c2s1`, the half-maximal effective concentration (EC50) is 15.1 µM.
In the case of `Cc1cc2ccccc2n1CCNC(=O)c1ccc(Br)o1`, the 50% effective concentration (EC50) was 3.48 µM.
Turning to `CCN1/C(=C/C(C)=C/c2sc3ccccc3[n+]2CC)Sc2ccccc21`, the EC50 is 0.53 µM.
Still for that read-out and setting: the figure for `CCN1CCN(Cc2ccc(NC(=O)c3cc(NC(=O)c4cncc(-c5cccs5)c4)cc(OC)c3)cc2C(F)(F)F)CC1` is > 30 µM (inactive).
As for `Cc1nn2c(N)csc2nc1=O`, the half-maximal effective concentration (EC50) was 4.09 µM.
With `C#CCOCCOCCOCCNc1nc(N2CCN(C(=O)[C@H]([C@@H](C)CC)n3cc([C@@H](N)CO)nn3)CC2)nc(N2CCN(C(=O)[C@H](Cc3cc4ccccc4[nH]3)n3cc([C@@H](N)Cc4ccc(O)cc4)nn3)CC2)n1`, the EC50 was 0.52 µM.
On the same count and under the same terms, for `COc1ccc(-c2csc(N(CCCN(C)C)C(=O)c3ccccc3Cl)n2)cc1` the value was > 30 µM (inactive); for `NC(N)=N/N=C/c1ccc(OCc2ccc(Cl)cc2Cl)cc1`, 1.91 µM; for `CCN1C(c2ccccc2)=C(c2ccccc2)S/C1=C\C=C1/SC(=S)N(C)C1=O`, 3.38 µM.
Same read-out and setting: the figure for `Nc1ccc2nc(-c3ccc(-c4nc5ccc(N)cc5[nH]4)cc3)[nH]c2c1` is > 30 µM (inactive); for `CCC(/C=C1\Sc2ccc(OC)cc2N1CCO)=C\c1sc2ccc(OC)cc2[n+]1CCO` it is 0.87 µM.
In the case of `CCCCN(CC)CCNC(=O)c1cc2c(-c3ccc(Cl)cc3)nn(C)c2s1`, the EC50 was 14.4 µM.
Consider `COc1ccc2nc(C)cc(N/N=C/c3cccc(OC)c3O)c2c1`, for which the EC50 was > 30 µM (inactive).
In the case of `CCCCCCCCCCCCCCCC[n+]1cccc2ccccc21`, the EC50 was > 30 µM (inactive).
As for `CCc1ccc(Nc2n[n+](-c3ccccc3)c(-c3cc(OC)c(OC)cc3Br)s2)cc1`, the EC50 is 5.06 µM.
Same read-out and setting: the figure for `CCOC(=O)C1=C(c2ccccc2)NC(N)=NC1c1ccc(OCc2ccc(C(=O)OC)cc2)cc1` (stereo unspecified) is > 30 µM (inactive).

Still in this assay, the particulars now being: MEK5-MEKK2 PB1 binding, measured here: Ki from binding competition.
As for `Nc1cc2nc[nH]c2cc1N`, the inhibitory constant (Ki) stood at 9.61 µM.
For `COc1ccc(-n2nc3c(N)n[nH]c3cc2=O)cc1`, the Ki stood at 1.33 µM.
Turning to `CCC(=C/c1sc2ccc3ccccc3c2[n+]1C)/C=C1\Sc2ccc3ccccc3c2N1C`, the inhibition constant (Ki) came to 0.12 µM.
The same measure, in the same setting: for `Cc1cc2cc(CNC(=O)NC3CCCCC3)ccc2[nH]1` the value was 3.69 µM; for `Cc1c2cc(O)c(=O)cc-2oc2cc(O)c(O)cc12`, 3.59 µM; for `O=C1Nc2ccc(Br)cc2/C1=N/N=C/C1=C(N2CCOCC2)C(=C\c2ccccc2)/CC1`, 1.68 µM.
`Cc1cc2ccccc2n1CCNC(=O)c1ccc(Br)o1`: the Ki turned out to be 3.12 µM.
With `CCN1/C(=C/C(C)=C/c2sc3ccccc3[n+]2CC)Sc2ccccc21`, the inhibition constant (Ki) was 0.47 µM.
Consider `Cc1nn2c(N)csc2nc1=O`, for which the Ki was determined as 3.66 µM.
For `CCN1C(c2ccccc2)=C(c2ccccc2)S/C1=C\C=C1/SC(=S)N(C)C1=O`, the Ki is 3.02 µM.
Consider `CCC(/C=C1\Sc2ccc(OC)cc2N1CCO)=C\c1sc2ccc(OC)cc2[n+]1CCO`, for which the inhibitory constant (Ki) was found to be 0.78 µM.

Broadly, the EC50 is the concentration at which the effect is half-maximal. A word on the Ki: it is a dissociation constant, usually derived from enzyme kinetics or from competition with a known ligand.

These data come from PubChem BioAssay AID1897 (NMMLSC, 2009).
